One block for each molecule: values may come before it.
What was measured:
[1] = Antiplatelet activity in human platelet rich plasma assessed as inhibition of ADP-induced platelet aggregation preincubated for 5 mins followed by ADP addition and measured after 20 mins by microplate reader analysis; assay type: functional, cell-based
P2Y purinoceptor 12 [2] = biological target: T1, P2Y purinoceptor 12 (Homo sapiens, UniProt Q9H244); test: Inhibition of 2-MeS-ADP induced P2Y12 (unknown origin) signalling expressed in CHO cells membrane incubated for 45 mins by 35S-GTPgammaS assay; assay type: functional, cell membranes
T1 sequence (Q9H244 whole entry): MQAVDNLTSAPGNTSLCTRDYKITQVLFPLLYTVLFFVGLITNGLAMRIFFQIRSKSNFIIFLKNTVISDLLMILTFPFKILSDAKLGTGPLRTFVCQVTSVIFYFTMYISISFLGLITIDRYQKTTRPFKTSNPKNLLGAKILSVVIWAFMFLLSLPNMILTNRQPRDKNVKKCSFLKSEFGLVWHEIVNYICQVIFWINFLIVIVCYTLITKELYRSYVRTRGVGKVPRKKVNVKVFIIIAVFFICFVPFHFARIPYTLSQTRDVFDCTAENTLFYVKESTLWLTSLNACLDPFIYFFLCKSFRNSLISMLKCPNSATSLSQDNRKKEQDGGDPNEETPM

[3] = Antiplatelet activity in human platelet rich plasma assessed as inhibition of ADP-induced platelet aggregation at 10 uM preincubated for 2 mins followed by ADP addition by turbidimetric method relative to control; assay type: functional; parameters: scale not given: the % may be the effect or the level left
[4] = Antiplatelet activity in human platelet rich plasma assessed as inhibition of collagen-induced platelet aggregation at 3 uM preincubated for 2 mins followed by collagen addition by turbidimetric method relative to control; assay type: functional; parameters: scale not given: the % may be the effect or the level left
[5] = Antiplatelet activity in human platelet rich plasma assessed as inhibition of thrombin-induced platelet aggregation at 3 uM preincubated for 2 mins followed by thrombin addition by turbidimetric method relative to control; assay type: functional; parameters: scale not given: the % may be the effect or the level left
[6] = Antiplatelet activity in rabbit platelet rich plasma assessed as inhibition of ADP-induced platelet aggregation preincubated for 5 mins followed by ADP addition and measured after 5 mins by turbidimetric method; assay type: functional, cell-based; conditions: Oryctolagus cuniculus
[7] = Antiplatelet activity in human platelet rich plasma assessed as inhibition of ADP-induced platelet aggregation preincubated for 2 mins followed by ADP addition for 5 mins; assay type: functional, cell-based
[8] = Antiplatelet activity in human platelet rich plasma assessed as inhibition of ADP-induced platelet aggregation preincubated for 2 mins followed by ADP addition and measured after 6 mins by Born method; assay type: functional, cell-based
P2Y purinoceptor 12 [9] = biological target: T1, P2Y purinoceptor 12; test: Displacement of tritium-labeled 2MeSADP from human P2Y12 expressed in CHO cells measured after 2 hrs by scintillation counting method; assay type: cell-based
P2Y purinoceptor 12 [10] = biological target: T1, P2Y purinoceptor 12; test: Displacement of 2-MeS[3H]-ADP from P2Y12 (unknown origin) expressed in HEK293 cells preincubated for 5 mins followed by 2-MeS[3H]-ADP addition and measured after 30 mins by Topcount beta counter analysis; assay type: cell-based
[11] = Anti-platelet aggregation activity in rat platelets assessed as inhibition of ADP-induced aggregation pre-treated for 5 mins followed by ADP addition and measured after 5 mins; assay type: functional, cell-based
Rattus norvegicus = organism: Rattus norvegicus; test: Anti-platelet aggregation activity in Sprague-Dawley rat assessed as reduction in bleeding time; assay type: functional
[12] = Anti-platelet aggregation activity in rat platelet rich plasma assessed as inhibition of ADP-induced aggregation at 250 ug/ml pre-treated for 5 mins followed by ADP addition by hemocytometer analysis; assay type: functional; parameters: scale not given: the % may be the effect or the level left; conditions: dose 250 µg/ml
P2Y purinoceptor 12 [13] = biological target: T1, P2Y purinoceptor 12; test: Binding affinity to P2Y12 (unknown origin)
[14] = Lipophilicity, logP of compound; assay type: physicochemical; conditions: octanol/water
[15] = Antiplatelet activity in rabbit platelet rich plasma assessed as inhibition of ADP-induced platelet aggregation at 150.8 uM preincubated for 3 mins followed by ADP addition and measured after 5 mins relative to control; assay type: functional, Oryctolagus cuniculus; parameters: scale not given: the % may be the effect or the level left; conditions: time 8 min
[16] = Antiplatelet activity in human platelet rich plasma assessed as inhibition of ADP-induced platelet aggregation; assay type: functional, cell-based
P2Y purinoceptor 12 [17] = biological target: T1, P2Y purinoceptor 12; test: Displacement of [3H]2MeSADP from human P2Y12 preincubated for 5 mins followed by [3H]2MeSADP addition and measured after 15 mins by scintillation counting method
Homo sapiens = test: Antiplatelet activity in human assessed as inhibition of ADP-induced platelet aggregation at 100 mg, po after 4 hrs; assay type: functional; parameters: scale not given: the % may be the effect or the level left
[18] = Half life in human plasma; assay type: ADME, cell-free
[19] = Anti-platelet aggregation activity in human platelets assessed as inhibition of epinephrine induced aggregation; assay type: functional, cell-based
P2Y purinoceptor 1 = P2Y purinoceptor 1 (Homo sapiens, UniProt P47900); test: Displacement of [3H]2MeSADP from human P2Y1 expressed in U2OS cell membranes incubated for 60 mins by scintillation counting method; parameters: species or system Membrane
Chain of P2Y purinoceptor 1 (P47900 whole entry): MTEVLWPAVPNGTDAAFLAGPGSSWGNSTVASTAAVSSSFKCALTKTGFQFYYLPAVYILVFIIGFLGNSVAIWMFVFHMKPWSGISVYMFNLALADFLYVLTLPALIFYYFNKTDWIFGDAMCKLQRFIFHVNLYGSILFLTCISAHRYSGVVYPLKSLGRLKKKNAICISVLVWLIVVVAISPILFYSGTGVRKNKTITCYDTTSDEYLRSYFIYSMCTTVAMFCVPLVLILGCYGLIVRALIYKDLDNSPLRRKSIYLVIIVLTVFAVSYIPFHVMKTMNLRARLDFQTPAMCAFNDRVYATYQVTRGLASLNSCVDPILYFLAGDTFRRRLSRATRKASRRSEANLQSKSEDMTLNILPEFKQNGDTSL

IC50 [1]: 30 nM
SMILES: CCNC(=O)[C@@H]1CCCN1C(=O)COc1cc(C(=O)N[C@@H](CCC(=O)O)C(=O)N2CCN(C(=O)OCC)CC2)nc2cccc(F)c12

IC50 (P2Y purinoceptor 12 [2]): 260 nM
SMILES: CCCC(=O)c1cc(C#N)c(N(C(=O)C2CCNCC2)S(=O)(=O)CCc2ccccc2)nc1C

IC50 [6]: 197 nM
SMILES: CC1CC(=O)NN=C1c1ccc(NC(=N)N)cc1 (centres undefined)
Activity [3]: 95.09%
Activity [4]: 100%
Activity [5]: 100%

IC50 [7]: 1 nM
SMILES: CCCCOC(=O)N1CCN(C(=O)[C@H](CCP(=O)(O)O)NC(=O)c2cc(N3CC[C@H](OC)C3)nc(-c3ccccc3)n2)CC1

IC50 [8]: ≤ 11 nM
SMILES: CCOC(=O)N1CCN(C(=O)[C@H](CCC(=O)O)NC(=O)c2cc(OCC(=O)N3CCC[C@H]3C(=O)NC3CCC3)n(-c3cccc(F)c3)n2)CC1

IC50 (P2Y purinoceptor 12 [9]): 1 nM
SMILES: CCCCOC(=O)N1CCN(C(=O)[C@H](CP(=O)(O)O)NC(=O)c2nc(-c3ccccc3)sc2N2CCN(C)CC2)CC1

IC50 [8]: ≤ 11 nM
SMILES: CCCCOC(=O)N1CCN(C(=O)[C@H](CCC(=O)O)NC(=O)c2cc(OCC(=O)N3CCC[C@H]3C(=O)N(C)C3CC3)n(-c3ccccc3)n2)CC1

IC50 (P2Y purinoceptor 12 [9]): 1 nM
SMILES: CCOC(=O)N1CCN(C(=O)[C@H](Cc2ccc(P(=O)(O)O)cc2)NC(=O)c2csc(-c3ccccc3)n2)CC1

IC50 (P2Y purinoceptor 12 [10]): 1350 nM
SMILES: CCCSc1nc(N[C@@H]2C[C@H]2c2ccccc2)c2nnn([C@@H]3CC[C@H](O)[C@@H](O)[C@H]3O)c2n1

IC50 [11]: 30900 nM
SMILES: CC(C)CCCC(C)[C@H]1CC[C@]2(C)[C@@H]1[C@H](O)C[C@@H]1[C@@]3(C)CC[C@H](O)C(C)(C)[C@@H]3[C@@H](O[C@@H]3O[C@H](CO)[C@@H](O)[C@H](O)[C@H]3O)C[C@]12C (some centres undefined)

SMILES: CCC(C)C(N)C(=O)Oc1cc2c(s1)CCN(C(C(=O)C1CC1)c1ccccc1F)C2.Cl (centres undefined)
ED50 (Rattus norvegicus): 0.74 mg/kg

IC50 (P2Y purinoceptor 12 [9]): 1 nM
SMILES: CCCCOC(=O)N1CCN(C(=O)[C@H](CP(=O)(O)O)NC(=O)c2nc(-c3ccccc3)sc2N(C)CCCC)CC1

IC50 (P2Y purinoceptor 12 [9]): 34 nM
SMILES: CCOC(=O)N1CCN(C(=O)[C@@H](CCC(=O)O)NC(=O)c2cc(Cl)cc(-c3ccccc3)n2)CC1

IC50 [1]: 30 nM
SMILES: CCOC(=O)N1CCN(C(=O)[C@H](CCC(=O)O)NC(=O)c2cc(O[C@H](C)C(=O)N3CCC[C@H]3C(=O)NC3CCCC3)c3ccc(C)cc3n2)CC1

SMILES: CC(=O)CCC1=C(C)C[C@@H](O[C@@H]2O[C@H](CO[C@@H]3OC[C@@H](O)[C@H](O)[C@H]3O)[C@@H](O)[C@H](O)[C@H]2O)CC1(C)C
Activity [12]: 89.59%

IC50 (P2Y purinoceptor 12 [13]): 320 nM
SMILES: Cc1cnc(-c2cnc(N3CCN(C(=O)NS(=O)(=O)c4ccccc4)CC3)c(Cl)c2)o1

logP [14]: 3.74
SMILES: COC(=O)[C@H](c1ccccc1Cl)N1CCc2sccc2C1 [CLOPIDOGREL]

SMILES: COc1cc2c(cc1OC)-c1c(C)c3ccc(OC)c(OC)c3c[n+]1CC2 [DEHYDROCORYDALINE]
Activity [15]: 73.48%

IC50 [16]: 10000 nM
IC50 (P2Y purinoceptor 12 [17]): 50 nM
half-life [18]: 12 h
SMILES: CNc1cc2[nH]c(=O)n(-c3ccc(NC(=O)NS(=O)(=O)c4ccc(Cl)s4)cc3)c(=O)c2cc1F [ELINOGREL]
Activity (Homo sapiens): 60%

IC50 [19]: 20 nM
SMILES: C[C@@H]1CC[C@]2(C(=O)O)CC[C@]3(C)C(=CC[C@@H]4[C@@]5(C)CC[C@H](O)C(C)(C)[C@@H]5CC[C@]43C)[C@@H]2[C@]1(C)O [POMOLIC ACID]

logP [14]: 3.42
SMILES: CC(=O)Oc1cc2c(s1)CCN(C(C(=O)C1CC1)c1ccccc1F)C2 (centres undefined) [PRASUGREL]

Ki (P2Y purinoceptor 1): 20300 nM
SMILES: O=C(/C=C/c1ccc(O)c(O)c1/C=C/c1ccc(O)c(O)c1)O[C@H](Cc1ccc(O)c(O)c1)C(=O)O [SALVIANOLIC ACID A]

logP [14]: 4.05
SMILES: Clc1ccccc1CN1CCc2sccc2C1 [TICLOPIDINE]

Reference: ChEMBL document CHEMBL5126507, “P2Y12 antagonists: Approved drugs, potential naturally isolated and synthesised compounds, and related in-silico studies” (Eur J Med Chem, 2022)
